From the supplement of paper PMC10307832

Legend:
Experiment in all cases: relative viability (nuclei count vs DMSO), 5 days (fraction); higher = more cells survive
NVP-TAE684 + Navitoclax = compound: COc1cc(N2CCC(N3CCN(C)CC3)CC2)ccc1Nc1ncc(Cl)c(Nc2ccccc2S(=O)(=O)C(C)C)n1 [NVP-TAE684] + CC1(C)CCC(c2ccc(Cl)cc2)=C(CN2CCN(c3ccc(C(=O)NS(=O)(=O)c4ccc(N[C@H](CCN5CCOCC5)CSc5ccccc5)c(S(=O)(=O)C(F)(F)F)c4)cc3)CC2)C1 [Navitoclax] (partner 0.5 µM)
In short: (§1)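 For relative viability, nuclei counts in treated wells were divided by those in vehicle wells. Lung cancer cell lines had been pin-tool dosed in 1536-well plates the day after seeding and cultured for 5 days, then fixed and stained in one step (final 0.05% Triton X-100, 1% formaldehyde, 1 ug/ml Hoechst) and imaged at 4×. Doses were one drug alone or a fixed anchor-drug dose plus five library-drug doses (not always all listed) in √10 steps, and values are duplicate-plate medians.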

NVP-TAE684 + Luminespib = compound: COc1cc(N2CCC(N3CCN(C)CC3)CC2)ccc1Nc1ncc(Cl)c(Nc2ccccc2S(=O)(=O)C(C)C)n1 [NVP-TAE684] + CCNC(=O)c1noc(-c2cc(C(C)C)c(O)cc2O)c1-c1ccc(CN2CCOCC2)cc1 [Luminespib] (partner 0.01 µM)
In short: as §1

NVP-TAE684 + Tozasertib = compound: COc1cc(N2CCC(N3CCN(C)CC3)CC2)ccc1Nc1ncc(Cl)c(Nc2ccccc2S(=O)(=O)C(C)C)n1 [NVP-TAE684] + Cc1cc(Nc2cc(N3CCN(C)CC3)nc(Sc3ccc(NC(=O)C4CC4)cc3)n2)n[nH]1 [Tozasertib] (partner 0.1 µM)
In short: as §1

NVP-TAE684 + Olaparib = compound: COc1cc(N2CCC(N3CCN(C)CC3)CC2)ccc1Nc1ncc(Cl)c(Nc2ccccc2S(=O)(=O)C(C)C)n1 [NVP-TAE684] + O=C(c1cc(Cc2n[nH]c(=O)c3ccccc23)ccc1F)N1CCN(C(=O)C2CC2)CC1 [Olaparib] (partner 8 µM)
In short: as §1

Vandetanib + Vorinostat = compound: COc1cc2/c(=N/c3ccc(Br)cc3F)nc[nH]c2cc1OCC1CCN(C)CC1 [Vandetanib] + O=C(CCCCCCC(=O)Nc1ccccc1)NO [Vorinostat] (partner 1 µM)
In short: as §1

Cell Line | relative viability (NVP-TAE684 + Navitoclax; first compound 0.2 µM) | relative viability (NVP-TAE684 + Navitoclax; first compound 0.6325 µM) | relative viability (NVP-TAE684 + Navitoclax; first compound 2 µM) | relative viability (NVP-TAE684 + Luminespib; first compound 0.2 µM) | relative viability (NVP-TAE684 + Luminespib; first compound 0.6325 µM) | relative viability (NVP-TAE684 + Luminespib; first compound 2 µM) | relative viability (NVP-TAE684 + Tozasertib; first compound 0.2 µM) | relative viability (NVP-TAE684 + Tozasertib; first compound 0.6325 µM) | relative viability (NVP-TAE684 + Tozasertib; first compound 2 µM) | relative viability (NVP-TAE684 + Olaparib; first compound 0.2 µM) | relative viability (NVP-TAE684 + Olaparib; first compound 0.6325 µM) | relative viability (NVP-TAE684 + Olaparib; first compound 2 µM) | relative viability (Vandetanib + Vorinostat; first compound 0.02 µM) | relative viability (Vandetanib + Vorinostat; first compound 0.06325 µM) | relative viability (Vandetanib + Vorinostat; first compound 0.2 µM) | relative viability (Vandetanib + Vorinostat; first compound 0.6325 µM) | relative viability (Vandetanib + Vorinostat; first compound 2 µM)
HOP-62 | 1.23 | 1.13 | 1.1 | 1.03 | 0.816 | 0.882 | 0.397 | 0.386 | 0.294 | 0.291 | 0.33 | 0.811 | 0.553 | 0.574 | 0.651 | 0.686 | 0.811
IA-LM | 0.762 | 0.641 | 0.687 | – | – | – | – | – | – | 0.745 | 0.799 | 0.638 | 1.06 | 0.969 | 0.935 | 1.06 | 0.874
LC-2-ad | 0.394 | 0.264 | 0.12 | 1.01 | 0.918 | 0.465 | 0.448 | 0.377 | 0.286 | 0.75 | 0.675 | 0.464 | 0.686 | 0.673 | 0.714 | 0.709 | 0.462
LCLC-97TM1 | 0.321 | 0.495 | 0.13 | 0.706 | – | 0.128 | 0.184 | 0.224 | 0.0618 | 0.443 | 0.326 | 0.154 | 0.711 | 0.755 | 0.719 | 0.559 | 0.755
LCLC-103H | – | – | – | 0.918 | 0.923 | 0.61 | 0.432 | 0.433 | 0.303 | 0.794 | 0.783 | 0.726 | 0.756 | 0.759 | 0.822 | 0.755 | 0.814
LK-2 | 0.777 | – | 0.449 | 0.169 | 0.157 | 0.167 | 0.154 | 0.191 | 0.179 | 0.698 | 0.698 | 0.451 | 0.31 | 0.311 | 0.341 | 0.265 | 0.365
LOU-NH91 | 0.644 | 0.607 | 0.463 | 0.305 | 0.339 | 0.296 | 0.622 | 0.576 | 0.475 | 0.888 | – | 0.657 | 0.942 | 0.806 | 0.559 | 0.883 | 0.886
LU99A | 0.802 | 0.769 | 0.362 | 0.301 | 0.259 | 0.253 | 0.298 | 0.293 | 0.206 | 0.283 | 0.266 | 0.24 | 0.474 | 0.377 | 0.499 | 0.49 | 0.528
LXF-289 | 0.966 | 0.966 | 0.803 | 0.583 | 0.776 | 0.425 | 0.263 | 0.168 | 0.0842 | 0.931 | 1.08 | 0.487 | 0.806 | 0.766 | 0.768 | 0.848 | 0.708
NCI-H23 | 0.806 | 0.785 | 0.607 | 0.225 | 0.21 | 0.204 | 0.402 | 0.367 | 0.241 | 0.312 | 0.211 | 0.187 | 0.55 | 0.585 | 0.517 | 0.608 | 0.598
NCI-H322M | 1.21 | 1.3 | 1.2 | 0.779 | 0.751 | 0.432 | 0.42 | 0.414 | 0.294 | 0.715 | 0.723 | 0.558 | 0.867 | 0.853 | 0.874 | 0.761 | 0.583
NCI-H358 | – | – | – | 0.25 | 0.337 | 0.115 | 0.0952 | 0.0896 | 0.0684 | 0.637 | 0.579 | 0.275 | 0.61 | 0.594 | 0.668 | 0.68 | 0.257
NCI-H522 | – | – | – | 0.925 | 1.28 | 1.02 | 0.53 | 0.692 | 0.509 | 0.642 | 0.664 | 0.662 | 0.947 | 0.962 | 0.85 | 0.874 | 0.936
NCI-H650 | – | – | – | 0.776 | 0.682 | 0.489 | 0.669 | 0.69 | 0.498 | 0.423 | 0.376 | 0.289 | 0.585 | 0.533 | 0.514 | 0.544 | 0.341
NCI-H661 | – | – | – | 1 | 0.883 | – | 0.373 | 0.341 | 0.352 | 0.771 | 0.788 | 0.625 | 0.736 | 0.798 | 0.783 | 0.867 | 0.915
NCI-H1299 | 1.08 | 1.05 | 1.05 | – | – | – | – | – | – | 0.979 | 1.02 | 0.682 | – | – | – | – | –
NCI-H1563 | – | – | – | 0.542 | 0.548 | 0.407 | – | – | – | – | – | – | – | – | – | – | –
NCI-H1623 | – | – | – | 0.531 | 0.54 | 0.322 | 0.442 | 0.427 | 0.393 | – | – | – | – | – | – | – | –
NCI-H1648 | – | – | – | – | – | – | 0.413 | 0.458 | 0.262 | 0.45 | 0.863 | 0.287 | 0.473 | 0.506 | 0.596 | 0.375 | 0.627
NCI-H1703 | 1.17 | 1.04 | 0.215 | – | – | – | – | – | – | 0.368 | 0.413 | 0.14 | – | – | – | – | –
NCI-H1792 | 0.533 | 0.579 | 0.558 | 0.396 | 0.411 | 0.359 | – | – | – | 0.52 | 0.37 | 0.248 | – | – | – | – | –
NCI-H2342 | – | – | – | 0.742 | 0.845 | 0.647 | 0.572 | 0.485 | 0.297 | 0.419 | 0.427 | 0.3 | 0.754 | 0.674 | 0.785 | 0.739 | 0.645
SW 900 | – | – | – | 0.164 | 0.154 | 0.158 | 0.576 | 0.531 | 0.322 | 0.885 | 0.953 | 0.68 | 0.692 | 0.528 | – | 0.425 | 0.429
